Source: patent US20240109918A1, “HETEROCYCLIC COMPOUNDS AND USES THEREOF” (Kumquat Biosciences Inc., priority 2022, published 2024)

Experiments:
KRASG12D = target: T1, KRASG12D (Homo sapiens, UniProt P01116, G12D); assay: Bio-Biochem-PPI-HTRF Ras-SOS1 interaction assay (KRAS G12D); assay type: biochemical; details: 5 nM
T1 construct: made in house; host or cells: E. coli BL21 (DE3)
Method in brief: (§1)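 Compounds tested in duplicate (10 μM to 0.01 μM) for disruption of His-hSOS1 binding to GST-tagged wild-type or G12D K-Ras in HEPES pH 7.4 buffer. TR-FRET read (Eu donor, XL665 acceptor) after about 10 min or longer; IC50 derived from the 665/620 nm emission ratio.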

KRASwt = target: T2, KRASwt (Homo sapiens, UniProt P01116); assay: Bio-Biochem-PPI-HTRF Ras-SOS1 interaction assay (KRAS wt); assay type: biochemical; details: 5 nM
T2 construct: made in house; host or cells: E. coli BL21 (DE3)
Method in brief: as §1

T2 sequence (P01116 1-188 isoform P01116-2): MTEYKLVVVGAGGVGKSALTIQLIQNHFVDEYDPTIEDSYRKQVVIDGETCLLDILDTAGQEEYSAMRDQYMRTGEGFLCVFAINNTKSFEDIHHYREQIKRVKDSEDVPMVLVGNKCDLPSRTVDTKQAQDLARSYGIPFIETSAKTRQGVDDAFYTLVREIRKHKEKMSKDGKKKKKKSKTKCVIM
T1 sequence (P01116 1-188 isoform P01116-2 G12D): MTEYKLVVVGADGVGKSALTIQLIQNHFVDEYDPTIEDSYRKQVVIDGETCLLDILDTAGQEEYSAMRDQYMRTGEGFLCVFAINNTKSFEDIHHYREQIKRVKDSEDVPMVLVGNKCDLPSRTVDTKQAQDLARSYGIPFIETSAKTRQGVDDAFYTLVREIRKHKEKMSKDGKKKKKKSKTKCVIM

Row | Structure (SMILES) | IC50 (KRASG12D) | IC50 (KRASwt)
1 | CC1(C)CN(c2nc(OC[C@@]34CCCN3C[C@H](F)C4)nc3c(F)c(-c4ccc(F)c5sc(N)nc45)c(Cl)cc23)CC2(CN(C#N)C2)O1 [compound 180, 8-(7-(2-amino-7-fluorobenzo[d]thiazol-4-yl)-6-chloro-8-fluoro-2-(((2R,7aS)-2-fluorotetrahydro-1H-pyrrolizin-7a(5H)-yl)methoxy)quinazolin-4-yl)-6,6-dimethyl-5-oxa-2,8-diazaspiro[3.5] nonane-2-carbonitrile] | ≥ 5 µM | < 5 µM
2 | N#Cc1c(N)sc2c(F)ccc(-c3c(Cl)cc4c(N5CCCCC6(CN(C(=O)N7CC(C(F)F)C7)C6)C5)nc(OC[C@@]56CCCN5C[C@H](F)C6)nc4c3F)c12 [compound 196, 2-amino-4-(6-chloro-4-(2-(3-(difluoromethyl)azetidine-1-carbonyl)-2,6-diazaspiro[3.6]decan-6-yl)-8-fluoro-2-(((2R,7aS)-2-fluorotetrahydro-1H-pyrrolizin-7a(5H)-yl)methoxy)quinazolin-7-yl)-7-fluorobenzo[b]thiophene-3-carbonitrile] | < 5 µM | < 5 µM
3 | Cc1ccnc(C(C)C)c1-n1c(=O)nc(N2CCOC3(CNC3)C2)c2cc(F)c(-c3ccc(F)c4sc(N)c(C#N)c34)nc21 [compound 108, 2-amino-7-fluoro-4-(6-fluoro-1-(2-isopropyl-4-methylpyridin-3-yl)-2-oxo-4-(5-oxa-2,8-diazaspiro[3.5]nonan-8-yl)-1,2-dihydropyrido[2,3-d]pyrimidin-7-yl)benzo[b]thiophene-3-carbonitrile] | ≥ 5 µM | ≥ 5 µM
4 | N#Cc1c(N)sc2c(F)ccc(-c3c(Cl)cc4c(N5CCCCC6(CNC6)C5)nc(OC[C@@]56CCCN5C[C@H](F)C6)nc4c3F)c12 [compound 149, 2-amino-4-(6-chloro-8-fluoro-2-(((2R,7aS)-2-fluorotetrahydro-1H-pyrrolizin-7a(5H)-yl)methoxy)-4-(2,6-diazaspiro[3.6]decan-6-yl)quinazolin-7-yl)-7-fluorobenzo[b]thiophene-3-carbonitrile] | < 5 µM | < 5 µM
5 | CC(=O)N1CC2(CCCN(c3nc(OC[C@@]45CCCN4C[C@H](F)C5)nc4c(F)c(-c5ccc(F)c6sc(N)c(C#N)c56)c(Cl)cc34)C2)C1 [compound 169, 4-(4-(2-acetyl-2,6-diazaspiro[3.5]nonan-6-yl)-6-chloro-8-fluoro-2-(((2R,7aS)-2-fluorotetrahydro-1H-pyrrolizin-7a(5H)-yl)methoxy)quinazolin-7-yl)-2-amino-7-fluorobenzo[b]thiophene-3-carbonitrile] | < 5 µM | < 5 µM
6 | N#CN1CC2(CCCN(c3nc(OC[C@@]45CCCN4C[C@H](F)C5)nc4c(F)c(-c5ccc(F)c6sc(N)nc56)c(Cl)cc34)C2)C1 [compound 177, 6-(7-(2-amino-7-fluorobenzo [d]thiazol-4-yl)-6-chloro-8-fluoro-2-(((2R,7aS)-2-fluorotetrahydro-1H-pyrrolizin-7a(5H)-yl)methoxy)quinazolin-4-yl)-2,6-diazaspiro[3.5]nonane-2-carbonitrile] | < 5 µM | < 5 µM
7 | C[C@H](Oc1nc(N2CCCC3(CN(C(=O)C(F)(F)F)C3)C2)c2cc(Cl)c(-c3ccc(F)c4sc(N)c(C#N)c34)c(F)c2n1)[C@@H]1CCCN1C [compound 123, 2-amino-4-(6-chloro-8-fluoro-2-((S)-1-((S)-1-methylpyrrolidin-2-yl)ethoxy)-4-(2-(2,2,2-trifluoroacetyl)-2,6-diazaspiro[3.5]nonan-6-yl)quinazolin-7-yl)-7-fluorobenzo[b]thiophene-3-carbonitrile] | < 5 µM | < 5 µM
8 | Cc1cc(C(=O)N2CC3(CCCCN(c4nc(OC[C@@]56CCCN5C[C@H](F)C6)nc5c(F)c(-c6ccc(F)c7sc(N)c(C#N)c67)c(Cl)cc45)C3)C2)nn1C(F)F [compound 209, 2-amino-4-(6-chloro-4-(2-(1-(difluoromethyl)-5-methyl-1H-pyrazole-3-carbonyl)-2,6-diazaspiro[3.6]decan-6-yl)-8-fluoro-2-(((2R,7aS)-2-fluorotetrahydro-1H-pyrrolizin-7a(5H)-yl)methoxy)quinazolin-7-yl)-7-fluorobenzo[b]thiophene-3-carbonitrile] | < 5 µM | < 5 µM
9 | N#Cc1c(N)sc2c(F)ccc(-c3c(Cl)cc4c(N5CCCCC6(CN(C(=O)C7CC78CCOC8)C6)C5)nc(OC[C@@]56CCCN5C[C@H](F)C6)nc4c3F)c12 (stereo partly drawn) [compound 267, 4-(4-(2-(5-oxaspiro[2.4]heptane-1-carbonyl)-2,6-diazaspiro[3.6]decan-6-yl)-6-chloro-8-fluoro-2-(((2R,7aS)-2-fluorotetrahydro-1H-pyrrolizin-7a(5H)-yl)methoxy)quinazolin-7-yl)-2-amino-7-fluorobenzo[b] thiophene-3-carbonitrile] | < 5 µM | < 5 µM
10 | N#Cc1c(N)sc2c(F)ccc(-c3c(Cl)cc4c(N5CCCCC6(CN(C(=O)C(F)Cl)C6)C5)nc(OC[C@@]56CCCN5C[C@H](F)C6)nc4c3F)c12 (stereo partly drawn) [compound 251, 2-amino-4-(6-chloro-4-(2-(2-chloro-2-fluoroacetyl)-2,6-diazaspiro [3.6]decan-6-yl)-8-fluoro-2-(((2R,7aS)-2-fluorotetrahydro-1H-pyrrolizin-7a(5H)-yl)methoxy)quinazolin-7-yl)-7-fluorobenzo[b]thiophene-3-carbonitrile] | < 5 µM | < 5 µM
11 | C[C@H](Oc1nc(N2CCCC3(CNC3)C2)c2cc(Cl)c(-c3ccc(F)c4sc(N)c(C#N)c34)c(F)c2n1)[C@@H]1CCCN1C [compound 122, 2-amino-4-(6-chloro-8-fluoro-2-((S)-1-((S)-1-methylpyrrolidin-2-yl)ethoxy)-4-(2,6-diazaspiro[3.5]nonan-6-yl)quinazolin-7-yl)-7-fluorobenzo[b]thiophene-3-carbonitrile] | < 5 µM | < 5 µM
12 | N#Cc1c(N)sc2c(F)ccc(-c3c(Cl)cc4c(N5CCCCC6(CN(C(=O)C78CC(C(F)(F)F)(C7)C8)C6)C5)nc(OC[C@@]56CCCN5C[C@H](F)C6)nc4c3F)c12 [compound 237, 2-amino-4-(6-chloro-8-fluoro-2-(((2R,7aS)-2-fluorotetrahydro-1H-pyrrolizin-7a(5H)-yl)methoxy)-4-(2-(3-(trifluoromethyl)bicyclo[1.1.1]pentane-1-carbonyl)-2,6-diazaspiro[3.6]decan-6-yl)quinazolin-7-yl)-7-fluorobenzo[b]thiophene-3-carbonitrile] | < 5 µM | < 5 µM

The remaining lines, values ahead:

Row | IC50 (KRASG12D) | IC50 (KRASwt) | Structure (SMILES)
13 | < 5 µM | < 5 µM | N#Cc1c(N)sc2c(F)ccc(-c3c(Cl)cc4c(N5CCCCC6(CN(C(=O)C7(CN8CCOCC8)CC7)C6)C5)nc(OC[C@@]56CCCN5C[C@H](F)C6)nc4c3F)c12 [compound 278, 2-amino-4-(6-chloro-8-fluoro-2-(((2R,7aS)-2-fluorotetrahydro-1H-pyrrolizin-7a(5H)-yl)methoxy)-4-(2-(1-(morpholinomethyl)cyclopropane-1-carbonyl)-2,6-diazaspiro[3.6]decan-6-yl)quinazolin-7-yl)-7-fluorobenzo[b]thiophene-3-carbonitrile]
14 | < 5 µM | < 5 µM | C[C@@H]1CN(C(=O)N2CC3(CCCCN(c4nc(OC[C@@]56CCCN5C[C@H](F)C6)nc5c(F)c(-c6ccc(F)c7sc(N)c(C#N)c67)c(Cl)cc45)C3)C2)CCO1 [compound 322, 2-amino-4-(6-chloro-8-fluoro-2-(((2R,7aS)-2-fluorotetrahydro-1H-pyrrolizin-7a(5H)-yl)methoxy)-4-(2-((R)-2-methylmorpholine-4-carbonyl)-2,6-diazaspiro[3.6]decan-6-yl)quinazolin-7-yl)-7-fluorobenzo[b]thiophene-3-carbonitrile]
15 | < 5 µM | < 5 µM | N#Cc1c(N)sc2c(F)ccc(-c3c(Cl)cc4c(N5CCCCC6(CN(C(=O)N7CCC(F)(F)C7)C6)C5)nc(OC[C@@]56CCCN5C[C@H](F)C6)nc4c3F)c12 [compound 292, 2-amino-4-(6-chloro-4-(2-(3,3-difluoropyrrolidine-1-carbonyl)-2,6-diazaspiro[3.6]decan-6-yl)-8-fluoro-2-(((2R,7aS)-2-fluorotetrahydro-1H-pyrrolizin-7a(5H)-yl)methoxy)quinazolin-7-yl)-7-fluorobenzo[b]thiophene-3-carbonitrile]
16 | < 5 µM | < 5 µM | N#Cc1c(N)sc2c(F)ccc(-c3c(Cl)cc4c(N5CCCCC6(CN(C(=O)CC7CC(F)(F)C7)C6)C5)nc(OC[C@@]56CCCN5C[C@H](F)C6)nc4c3F)c12 [compound 347, 2-amino-4-(6-chloro-4-(2-(2-(3,3-difluorocyclobutyl)acetyl)-2,6-diazaspiro[3.6]decan-6-yl)-8-fluoro-2-(((2R,7aS)-2-fluorotetrahydro-1H-pyrrolizin-7a(5H)-yl)methoxy)quinazolin-7-yl)-7-fluorobenzo[b]thiophene-3-carbonitrile]
17 | < 5 µM | < 5 µM | N#Cc1c(N)sc2c(F)ccc(-c3c(Cl)cc4c(N5CCCCC6(CN(C(=O)C7COC7)C6)C5)nc(OC[C@@]56CCCN5C[C@H](F)C6)nc4c3F)c12 [compound 293, 2-amino-4-(6-chloro-8-fluoro-2-(((2R,7aS)-2-fluorotetrahydro-1H-pyrrolizin-7a(5H)-yl)methoxy)-4-(2-(oxetane-3-carbonyl)-2,6-diazaspiro[3.6]decan-6-yl)quinazolin-7-yl)-7-fluorobenzo[b]thiophene-3-carbonitrile]
18 | < 5 µM | < 5 µM | C[C@H]1CN(C(=O)N2CC3(CCCCN(c4nc(OC[C@@]56CCCN5C[C@H](F)C6)nc5c(F)c(-c6ccc(F)c7sc(N)c(C#N)c67)c(Cl)cc45)C3)C2)CCO1 [compound 285, 2-amino-4-(6-chloro-8-fluoro-2-(((2R,7aS)-2-fluorotetrahydro-1H-pyrrolizin-7a(5H)-yl)methoxy)-4-(2-((S)-2-methylmorpholine-4-carbonyl)-2,6-diazaspiro[3.6]decan-6-yl)quinazolin-7-yl)-7-fluorobenzo[b]thiophene-3-carbonitrile]
